These results are taken from ChEMBL document CHEMBL5291721, “A preclinical secondary pharmacology resource illuminates target-adverse drug reaction associations of marketed drugs” (Nat Commun, 2023).

Assay [1] deals with T1, Adenosine receptor A1 (Homo sapiens, UniProt P30542).
T1 sequence (P30542 whole entry): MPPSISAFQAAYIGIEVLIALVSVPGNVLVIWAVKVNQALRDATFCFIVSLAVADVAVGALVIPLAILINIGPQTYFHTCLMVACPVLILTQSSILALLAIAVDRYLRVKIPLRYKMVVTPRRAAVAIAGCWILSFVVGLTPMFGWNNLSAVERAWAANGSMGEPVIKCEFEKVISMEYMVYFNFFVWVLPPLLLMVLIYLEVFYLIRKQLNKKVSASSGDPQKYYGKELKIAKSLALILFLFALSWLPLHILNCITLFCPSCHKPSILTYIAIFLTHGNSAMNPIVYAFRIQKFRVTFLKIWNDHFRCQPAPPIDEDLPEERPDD

Assay [2] deals with T1, Adenosine receptor A1. This is another data set of the same source.
Assay [3] has as its target T2, Alpha-2A adrenergic receptor (Homo sapiens, UniProt P08913).
T2 sequence (P08913 whole entry): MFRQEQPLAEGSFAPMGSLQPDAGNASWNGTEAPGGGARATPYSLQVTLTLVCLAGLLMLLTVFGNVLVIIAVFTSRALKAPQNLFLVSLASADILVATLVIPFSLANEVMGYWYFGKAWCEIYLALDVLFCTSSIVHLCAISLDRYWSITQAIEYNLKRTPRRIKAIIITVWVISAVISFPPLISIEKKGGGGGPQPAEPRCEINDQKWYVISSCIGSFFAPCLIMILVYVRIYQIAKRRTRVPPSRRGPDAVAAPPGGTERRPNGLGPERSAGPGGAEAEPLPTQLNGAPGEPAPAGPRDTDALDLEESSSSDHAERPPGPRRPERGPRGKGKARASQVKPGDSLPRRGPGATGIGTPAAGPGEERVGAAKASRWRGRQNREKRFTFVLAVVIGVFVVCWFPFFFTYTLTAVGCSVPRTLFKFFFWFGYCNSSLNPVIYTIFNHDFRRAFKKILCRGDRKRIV
It is filed as functional, cell-based.

Assay [4] deals with Beta-1 adrenergic receptor (Homo sapiens, UniProt P08588). The assay is classed as functional.
Sequence of Beta-1 adrenergic receptor (P08588 whole entry): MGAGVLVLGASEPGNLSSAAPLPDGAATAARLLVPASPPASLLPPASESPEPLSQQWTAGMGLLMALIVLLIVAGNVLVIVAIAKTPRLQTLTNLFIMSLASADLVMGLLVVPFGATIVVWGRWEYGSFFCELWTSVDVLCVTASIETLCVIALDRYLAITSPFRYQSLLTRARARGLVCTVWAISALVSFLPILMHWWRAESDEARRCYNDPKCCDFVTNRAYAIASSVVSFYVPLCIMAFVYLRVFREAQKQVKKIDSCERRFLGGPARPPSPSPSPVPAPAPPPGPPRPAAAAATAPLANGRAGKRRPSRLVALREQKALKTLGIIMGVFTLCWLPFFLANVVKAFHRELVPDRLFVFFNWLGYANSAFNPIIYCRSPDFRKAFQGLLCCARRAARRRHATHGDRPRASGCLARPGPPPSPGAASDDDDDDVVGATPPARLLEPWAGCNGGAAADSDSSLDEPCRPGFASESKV
The target of assay [5] is Vasopressin V1a receptor (Homo sapiens, UniProt P37288).
Sequence of Vasopressin V1a receptor (P37288 whole entry): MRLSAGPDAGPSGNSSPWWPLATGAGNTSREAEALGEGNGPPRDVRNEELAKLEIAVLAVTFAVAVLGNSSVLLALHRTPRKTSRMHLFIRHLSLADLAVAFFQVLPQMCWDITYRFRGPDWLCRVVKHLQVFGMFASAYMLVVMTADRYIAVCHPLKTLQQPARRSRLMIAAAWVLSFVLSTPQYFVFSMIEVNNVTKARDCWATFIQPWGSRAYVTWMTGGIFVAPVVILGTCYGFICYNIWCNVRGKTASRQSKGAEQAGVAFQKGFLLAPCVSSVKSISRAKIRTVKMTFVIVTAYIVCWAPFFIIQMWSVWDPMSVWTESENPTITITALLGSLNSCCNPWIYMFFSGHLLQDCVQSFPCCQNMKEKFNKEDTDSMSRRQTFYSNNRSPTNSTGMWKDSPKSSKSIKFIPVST
In assay [6] the target is T3, Endothelin-1 receptor (Homo sapiens, UniProt P25101).
T3 sequence (P25101 whole entry): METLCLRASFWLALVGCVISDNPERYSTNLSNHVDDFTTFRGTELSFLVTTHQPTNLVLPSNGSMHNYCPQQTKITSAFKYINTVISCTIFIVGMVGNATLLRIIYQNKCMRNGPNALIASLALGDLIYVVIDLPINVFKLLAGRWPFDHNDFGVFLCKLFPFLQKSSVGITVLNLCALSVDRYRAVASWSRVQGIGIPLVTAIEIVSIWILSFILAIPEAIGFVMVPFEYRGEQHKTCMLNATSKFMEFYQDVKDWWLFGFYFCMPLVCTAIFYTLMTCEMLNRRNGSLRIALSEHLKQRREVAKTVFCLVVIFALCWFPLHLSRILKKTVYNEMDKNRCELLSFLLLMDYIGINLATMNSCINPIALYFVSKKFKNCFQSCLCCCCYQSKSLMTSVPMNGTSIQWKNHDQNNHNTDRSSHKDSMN

In assay [7] the target is T4, Glucocorticoid receptor (Homo sapiens, UniProt P04150).
T4 sequence (P04150 whole entry): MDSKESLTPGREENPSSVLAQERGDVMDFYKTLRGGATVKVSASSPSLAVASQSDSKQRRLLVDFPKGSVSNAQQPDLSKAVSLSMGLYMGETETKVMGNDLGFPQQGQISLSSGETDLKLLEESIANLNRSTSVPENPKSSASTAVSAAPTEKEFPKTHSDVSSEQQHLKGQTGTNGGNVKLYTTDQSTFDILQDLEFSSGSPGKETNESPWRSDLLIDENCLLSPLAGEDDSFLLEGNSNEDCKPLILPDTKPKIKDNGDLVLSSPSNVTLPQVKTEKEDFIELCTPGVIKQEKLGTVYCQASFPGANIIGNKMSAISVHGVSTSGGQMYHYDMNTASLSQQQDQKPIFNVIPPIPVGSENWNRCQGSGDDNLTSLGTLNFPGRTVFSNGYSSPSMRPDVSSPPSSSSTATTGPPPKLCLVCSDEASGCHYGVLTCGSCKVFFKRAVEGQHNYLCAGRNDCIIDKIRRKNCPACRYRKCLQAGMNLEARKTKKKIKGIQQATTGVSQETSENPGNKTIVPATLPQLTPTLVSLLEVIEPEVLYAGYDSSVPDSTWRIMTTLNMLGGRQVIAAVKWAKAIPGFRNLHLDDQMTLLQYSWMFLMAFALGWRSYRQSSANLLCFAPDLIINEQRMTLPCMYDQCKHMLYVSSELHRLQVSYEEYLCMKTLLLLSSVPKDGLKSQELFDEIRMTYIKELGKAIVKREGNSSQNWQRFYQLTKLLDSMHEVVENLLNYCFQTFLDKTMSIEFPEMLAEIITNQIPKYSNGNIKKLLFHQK

Assay [8] deals with T5, Prostaglandin G/H synthase 1 (Rattus norvegicus, UniProt Q63921).
T5 sequence (Q63921 whole entry): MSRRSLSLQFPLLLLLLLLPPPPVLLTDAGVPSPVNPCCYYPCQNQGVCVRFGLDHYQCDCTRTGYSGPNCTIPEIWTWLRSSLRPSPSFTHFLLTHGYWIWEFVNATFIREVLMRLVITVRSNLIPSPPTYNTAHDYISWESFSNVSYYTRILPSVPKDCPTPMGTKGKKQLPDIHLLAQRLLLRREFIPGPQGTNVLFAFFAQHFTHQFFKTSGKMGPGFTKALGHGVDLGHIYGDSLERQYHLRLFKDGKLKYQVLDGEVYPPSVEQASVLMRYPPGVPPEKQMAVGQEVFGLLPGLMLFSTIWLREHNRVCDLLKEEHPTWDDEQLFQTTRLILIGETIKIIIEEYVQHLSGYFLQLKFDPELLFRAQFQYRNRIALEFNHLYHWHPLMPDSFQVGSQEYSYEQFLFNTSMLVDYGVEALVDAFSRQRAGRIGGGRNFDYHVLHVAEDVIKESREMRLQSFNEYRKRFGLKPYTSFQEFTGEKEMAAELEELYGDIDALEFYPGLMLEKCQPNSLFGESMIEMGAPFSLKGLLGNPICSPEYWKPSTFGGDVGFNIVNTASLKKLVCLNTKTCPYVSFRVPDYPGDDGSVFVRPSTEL
It is filed as functional.

Assay [9] has as its target Sodium-dependent dopamine transporter (Homo sapiens, UniProt Q01959).
For assay [10], the target named is Cannabinoid receptor 1 (Homo sapiens, UniProt P21554). It is filed as functional, cell-based.
Sequence of Cannabinoid receptor 1 (P21554 whole entry): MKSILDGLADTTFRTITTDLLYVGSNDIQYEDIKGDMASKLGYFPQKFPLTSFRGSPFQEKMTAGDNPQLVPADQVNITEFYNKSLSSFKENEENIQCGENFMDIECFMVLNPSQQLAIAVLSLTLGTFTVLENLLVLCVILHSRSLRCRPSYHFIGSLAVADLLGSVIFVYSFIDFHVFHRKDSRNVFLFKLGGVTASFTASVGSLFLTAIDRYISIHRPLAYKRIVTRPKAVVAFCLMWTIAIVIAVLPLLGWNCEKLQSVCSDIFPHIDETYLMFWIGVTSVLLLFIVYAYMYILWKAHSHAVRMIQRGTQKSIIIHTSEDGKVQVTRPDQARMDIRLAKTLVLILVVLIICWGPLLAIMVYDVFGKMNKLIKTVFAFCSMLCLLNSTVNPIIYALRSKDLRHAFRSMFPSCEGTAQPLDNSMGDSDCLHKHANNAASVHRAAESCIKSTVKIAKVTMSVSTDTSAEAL

For orientation: AC50 means the midpoint of the concentration-response curve, whichever way the signal moves. The low end stands for greater potency, the high end for weaker potency.
Note: assay procedure not described here.

Sequence of Sodium-dependent dopamine transporter (Q01959 whole entry): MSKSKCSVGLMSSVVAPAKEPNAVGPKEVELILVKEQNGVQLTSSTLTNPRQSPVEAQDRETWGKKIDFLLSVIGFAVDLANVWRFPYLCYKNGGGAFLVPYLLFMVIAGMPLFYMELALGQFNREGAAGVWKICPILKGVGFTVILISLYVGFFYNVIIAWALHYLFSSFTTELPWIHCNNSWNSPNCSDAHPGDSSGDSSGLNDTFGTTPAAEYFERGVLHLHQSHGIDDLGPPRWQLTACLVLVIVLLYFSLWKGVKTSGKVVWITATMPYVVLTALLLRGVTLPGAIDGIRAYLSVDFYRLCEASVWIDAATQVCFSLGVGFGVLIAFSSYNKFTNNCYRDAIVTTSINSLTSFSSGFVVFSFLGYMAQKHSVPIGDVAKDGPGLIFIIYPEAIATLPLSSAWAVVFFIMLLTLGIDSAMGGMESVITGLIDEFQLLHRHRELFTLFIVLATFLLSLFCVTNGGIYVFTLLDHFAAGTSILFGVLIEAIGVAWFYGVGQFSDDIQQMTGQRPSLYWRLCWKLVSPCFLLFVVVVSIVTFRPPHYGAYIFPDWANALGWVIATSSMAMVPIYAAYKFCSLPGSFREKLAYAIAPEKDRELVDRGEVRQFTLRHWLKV

Regarding `CCCCCNC(=N)N/N=C/c1c[nH]c2ccc(OC)cc12` [TEGASEROD], the AC50 in [1] was more than 30 µM; in assay [2], more than 30 µM; in assay [3], 5.65 µM; in [4], 7.02 µM; in assay [5], 21.3 µM; in assay [6], more than 30 µM. The AC50 in [7] was more than 30 µM; in assay [8], 25 µM; in [9], 6.78 µM.
With `COc1cc2nc(N3CCN(C(=O)c4ccco4)CC3)nc(N)c2cc1OC` [PRAZOSIN], the AC50 in assay [1] was more than 30 µM; in [2], more than 30 µM; in assay [4] it was more than 10 µM; in assay [5], more than 10 µM; in assay [10], more than 30 µM; in [6], more than 30 µM. For the same molecule, the figures for the AC50 in [7], in [8] and in assay [9] were more than 30 µM, more than 30 µM and more than 10 µM, respectively.
On to `COc1ccccc1N1CCN(CC(O)COc2cccc3ccccc23)CC1` (stereo not given) [NAFTOPIDIL], for which the AC50 in assay [2] was more than 30 µM; in assay [3], 3.7 µM; in [4], 1.1 µM; in assay [10] it was more than 30 µM; in [7], 8.9 µM; in [8], more than 30 µM. The same molecule yielded an AC50 in assay [9] of 5.5 µM.
In the case of `O=[N+]([O-])O[C@@H]1CO[C@H]2[C@@H]1OC[C@@H]2O` [ISOSORBIDE MONONITRATE], the AC50 is more than 30 µM in [1]; more than 30 µM in [2]; more than 10 µM in assay [3]; more than 10 µM in [4]; more than 10 µM in assay [5]; more than 30 µM in [6]. Further, the half-maximal activity concentration (AC50) is more than 30 µM in assay [7], more than 30 µM in assay [8] and more than 10 µM in assay [9].
In the case of `COC1=C(OC)C(=O)C(C/C=C(\C)CC/C=C(\C)CC/C=C(\C)CC/C=C(\C)CC/C=C(\C)CC/C=C(\C)CC/C=C(\C)CC/C=C(\C)CC/C=C(\C)CCC=C(C)C)=C(C)C1=O` [UBIDECARENONE], the AC50 in [2], in [3] and in assay [10] was more than 30 µM throughout.
For the molecule `Cc1oc(=O)oc1CN1CCN(c2cc3c(cc2F)c(=O)c(C(=O)O)c2n3C(C)S2)CC1` (stereo not given) [PRULIFLOXACIN], the AC50 in assay [2], in assay [3] and in assay [10] was more than 30 µM in each case.
Consider `CC[C@H]1CN2CCc3cc(OC)c(OC)cc3[C@@H]2C[C@@H]1C[C@H]1NCCc2cc(OC)c(OC)cc21` [EMETINE], for which the AC50 is more than 30 µM in [1]; more than 30 µM in assay [2]; 1.2 µM in [3]; more than 30 µM in assay [4]; more than 30 µM in [5]; more than 30 µM in assay [10]. The AC50 in assay [6], in [7], in [8] and in [9] was more than 30 µM throughout.
